Tests used:
midzonal hepatocytes = assay: Eck fistula dogs, left portal vein infusion: electron microscopy of hepatocyte organelles; type: in vivo, dog (beagle)
Description: (§1) Twenty adult female beagle dogs underwent Eck fistula (Starzl et al, Lancet, 1976, 1:821-25). After performing a large side to side portacaval shunt, the left and right portal vein branches were ligated. A small infusion catheter was tied into the left branch and led through the abdominal wall and subcutaneously to a battery charged infusion pump that was incorporated into a non-restraining body cast. A constant infusion was started of the control or test fluids at the volume of 20 to 30 ml/day. Oral fluids and diet were allowed ad lib. Four days later, the animals were administered 0.2 mCi/kg (CH3 -^3 H)-thymidine with specific activity of 80-90 Ci/MMol (New England Nuclear, Boston). Two hours later, the dogs were anesthetized and killed.
For studies of the organelles, small cubes of each hepatic sample were taken for electron microscopy. The tissue was post-fixed in glutaraldehyde followed by osmic acid. After embedding in Polarbed. 812 resin, ultrathin sections were cut, stained with lead citrate and examined in a Philip's 300 electron microscope. Measurements of the organelles were made on electron micrographs by Loud's method (Loud, J Cell Biol, 1968, 37:27-46).
(§2) Results are expressed as mean±standard deviation (SD). The Student's t-test was employed in individual experimental groups to compare differences between right and left lobes or between groups. A p value less than 0.05 was considered to be significant.

[1] = test system: acute and chronic liver allograft rejection; conditions: humans; compared with previous compounds; cited from earlier work
hepatocytes = assay: Eck fistula dogs, left portal vein infusion: hepatocyte size and 3H-thymidine labelled hepatocytes; type: in vivo, dog (beagle); conditions: for Labeled Hepatocytes/1000 Hepatocytes, Left / Hepatocytes Size Units, Left: left (infused) lobe; for Labeled Hepatocytes/1000 Hepatocytes, Left / Hepatocytes Size Units, Left / Hepatocytes Size Units, Right / Labeled Hepatocytes/1000 Hepatocytes, Right: mean +/- SD; for Hepatocytes Size Units, Right / Labeled Hepatocytes/1000 Hepatocytes, Right: right lobe
Description: as §1
Specimens were taken from 2 of the right hepatic lobes and 2 of the left lobes, fixed in 10% buffered formalin, and stained using standard hematoxylin-eosin staining techniques.
Autoradiography was carried out using Ilford K5 nuclear track liquid emulsion and an exposure time of at least 30 days. The number of mitoses, as an index of hepatocyte regeneration, was determined by counting the number of ^3 H-thymidine labelled nuclei per 1000 hepatocytes. […] In normal, unaltered dogs, about 1.6±0.4 mitosis per 1000 hepatocytes are present in the liver, and midzonal hepatocytes are about 0.17±0.01 size-units (Starzl et al, Lancet, 1979, 1:127-130). The exceptional reproducibility of these values and the small standard deviations make it easy to identify changes caused by operations such as Eck fistula, drugs, or other experimental variables.
as §2

hepatocytes in culture = conditions: literature (Francavilla et al); cited from earlier work
[2] = 1.0 mg/kg/day, right lobe, mean +/- SD
[3] = infused into the left portal vein

## C=CCC1C=C(C)CC(C)CC(OC)C2OC(O)(C(=O)C(=O)N3CCCCC3C(=O)OC(C(C)=CC3CCC(O)C(OC)C3)C(C)C(O)CC1=O)C(C)CC2OC (centres unmarked) [FK 506]
Midzonal hepatocytes; 1.0 mg/kg/day, left (infused) lobe, mean +/- SD, left vs right p 0.0044
  Organelle volume in average midzonal hepatocytes, Lipids, Left: 15.6 +/- 2.8 uM^3
Midzonal hepatocytes; 1.0 mg/kg/day, left (infused) lobe, mean +/- SD, left vs right p 0.1111
  Organelle volume in average midzonal hepatocytes, Microbodies, Left: 94.2 +/- 10.4 uM^3
Midzonal hepatocytes; 1.0 mg/kg/day, left (infused) lobe, mean +/- SD, left vs right p 0.1996
  Organelle volume in average midzonal hepatocytes, Mitochondria, Left: 1284.8 +/- 178.9 uM^3
Midzonal hepatocytes; 1.0 mg/kg/day, left (infused) lobe, mean +/- SD, p vs vehicle 0.0000, left vs right 0.0002
  Area of rough endoplasmic reticulum per average midzonal hepatocyte, Left: 32091 +/- 1225 uM^2
Midzonal hepatocytes; 1.0 mg/kg/day, left (infused) lobe, mean +/- SD, p vs vehicle 0.0574, left vs right 0.0024
  Area of smooth endoplasmic reticulum per average midzonal hepatocyte, Left: 17876 +/- 642 uM^2
Midzonal hepatocytes; 1 mg/kg/day, p<0.05
  lysosomes in right lobar hepatocytes: reduced
Midzonal hepatocytes; 1 mg/kg/day, p=0.07
  microbodies in right lobar hepatocytes: reduced
Midzonal hepatocytes; [2]
  Organelle volume in average midzonal hepatocytes, Lipids, Right: 47.8 +/- 11.3 uM^3
  Organelle volume in average midzonal hepatocytes, Lysosomes, Right: 160.0 +/- 23.8 uM^3
  Organelle volume in average midzonal hepatocytes, Microbodies, Right: 136.6 +/- 41.3 uM^3
  Organelle volume in average midzonal hepatocytes, Mitochondria, Right: 1440.6 +/- 318.7 uM^3
Midzonal hepatocytes; 1.0 mg/kg/day, right lobe, mean +/- SD, p vs vehicle 0.0003
  Area of rough endoplasmic reticulum per average midzonal hepatocyte, Right: 20839 +/- 1612 uM^2
Midzonal hepatocytes; 1.0 mg/kg/day, right lobe, mean +/- SD, p vs vehicle 0.0858
  Area of smooth endoplasmic reticulum per average midzonal hepatocyte, Right: 23154 +/- 193 uM^2
Midzonal hepatocytes; FK 506-infused lobes
  mitochondria: neither enlarged (Table V) nor abnormal
  number of microbodies, lysosomes and small lipid containing vacuoles: near normal levels
Midzonal hepatocytes; infused lobes
  amount of rough endoplasmic reticulum: restored relative to controls
  dilatation and disruption of the cisternae: minimal
Midzonal hepatocytes; left lobes, even at the smallest doses
  ultrastructure of hepatocytes exposed to infused FK 506: almost normal even at the smallest doses
Midzonal hepatocytes; low doses of FK 506, compared with controls
  changes in the hepatocytes in the right lobes: did not differ greatly from those seen in the controls
[1]
  acute and chronic liver allograft rejection: prevent acute and chronic liver allograft rejection in humans more reliably and completely than has been possible with previous compounds
hepatocytes; 0.01 mg/kg/day, p vs vehicle 0.0044, left vs right 0.0167
  Labeled Hepatocytes/1000 Hepatocytes, Left: 5.43 +/- .35 Labeled Hepatocytes/1000 Hepat
hepatocytes; 0.01 mg/kg/day, p vs vehicle 0.5782, left vs right 0.0004
  Hepatocytes Size Units, Left: .111 +/- .008 Size Units
hepatocytes; 0.01 mg/kg/day, p vs vehicle 0.1860
  Hepatocytes Size Units, Right: .100 +/- .007 Size Units
hepatocytes; 0.01 mg/kg/day, p vs vehicle 0.2477
  Labeled Hepatocytes/1000 Hepatocytes, Right: 4.77 +/- .60 Labeled Hepatocytes/1000 Hepat
hepatocytes; 0.1 mg/kg/day, p vs vehicle 0.0005, left vs right 0.0001
  Labeled Hepatocytes/1000 Hepatocytes, Left: 5.98 +/- .43 Labeled Hepatocytes/1000 Hepat
hepatocytes; 0.1 mg/kg/day, p vs vehicle 0.0065, left vs right 0.0000
  Hepatocytes Size Units, Left: .137 +/- .008 Size Units
hepatocytes; 0.1 mg/kg/day, p vs vehicle 0.0086
  Labeled Hepatocytes/1000 Hepatocytes, Right: 5.19 +/- .38 Labeled Hepatocytes/1000 Hepat
hepatocytes; 0.1 mg/kg/day, p vs vehicle 0.8351
  Hepatocytes Size Units, Right: .113 +/- .006 Size Units
hepatocytes; 1.0 mg/kg/day, p vs vehicle 0.0001, left vs right 0.0015
  Labeled Hepatocytes/1000 Hepatocytes, Left: 9.13 +/- .89 Labeled Hepatocytes/1000 Hepat
hepatocytes; 1.0 mg/kg/day, p vs vehicle 0.0004, left vs right 0.0009
  Hepatocytes Size Units, Left: .162 +/- .012 Size Units
hepatocytes; 1.0 mg/kg/day, p vs vehicle 0.0503
  Hepatocytes Size Units, Right: .134 +/- .006 Size Units
hepatocytes; 1.0 mg/kg/day, p vs vehicle 0.0510
  Labeled Hepatocytes/1000 Hepatocytes, Right: 5.37 +/- .78 Labeled Hepatocytes/1000 Hepat
hepatocytes; all doses
  changes in directly infused lobes compared with non-infused lobes: significantly greater in the directly infused lobes at all doses
hepatocytes; high FK 506 doses
  changes in non-infused lobes compared to vehicle controls: significantly effected compared to the vehicle controls
hepatocytes; [3]
  atrophy of the left lobar hepatocytes: prevented in proportion to the dose
  rate of mitoses: increased
hepatocytes; lobes infused with FK 506
  evidence of drug toxicity in infused lobes: no evidence of drug toxicity
Hepatocytes in culture
  direct effect on hepatocytes in culture: no direct effect

— US5196437A, “Method for treating hepatic diseases and regenerating liver tissue using FK 506 and related compounds” (Fujisawa Pharmaceutical Company, Ltd., priority 1990, dated 1993)
